Reference: ChEMBL document CHEMBL2074005, “Use of the anionic dye carboxy-2',7'-dichlorofluorescein for sensitive flow cytometric detection of multidrug resistance-associated protein activity” (Int J Oncol, 1999)

Biological target: Multidrug resistance-associated protein 1 (Homo sapiens, UniProt P33527)
Assay: TP_TRANSPORTER: efflux in GLC4/sb30 cells
Assay type: functional, cell-based

Multidrug resistance-associated protein 1, sequence (P33527 whole entry): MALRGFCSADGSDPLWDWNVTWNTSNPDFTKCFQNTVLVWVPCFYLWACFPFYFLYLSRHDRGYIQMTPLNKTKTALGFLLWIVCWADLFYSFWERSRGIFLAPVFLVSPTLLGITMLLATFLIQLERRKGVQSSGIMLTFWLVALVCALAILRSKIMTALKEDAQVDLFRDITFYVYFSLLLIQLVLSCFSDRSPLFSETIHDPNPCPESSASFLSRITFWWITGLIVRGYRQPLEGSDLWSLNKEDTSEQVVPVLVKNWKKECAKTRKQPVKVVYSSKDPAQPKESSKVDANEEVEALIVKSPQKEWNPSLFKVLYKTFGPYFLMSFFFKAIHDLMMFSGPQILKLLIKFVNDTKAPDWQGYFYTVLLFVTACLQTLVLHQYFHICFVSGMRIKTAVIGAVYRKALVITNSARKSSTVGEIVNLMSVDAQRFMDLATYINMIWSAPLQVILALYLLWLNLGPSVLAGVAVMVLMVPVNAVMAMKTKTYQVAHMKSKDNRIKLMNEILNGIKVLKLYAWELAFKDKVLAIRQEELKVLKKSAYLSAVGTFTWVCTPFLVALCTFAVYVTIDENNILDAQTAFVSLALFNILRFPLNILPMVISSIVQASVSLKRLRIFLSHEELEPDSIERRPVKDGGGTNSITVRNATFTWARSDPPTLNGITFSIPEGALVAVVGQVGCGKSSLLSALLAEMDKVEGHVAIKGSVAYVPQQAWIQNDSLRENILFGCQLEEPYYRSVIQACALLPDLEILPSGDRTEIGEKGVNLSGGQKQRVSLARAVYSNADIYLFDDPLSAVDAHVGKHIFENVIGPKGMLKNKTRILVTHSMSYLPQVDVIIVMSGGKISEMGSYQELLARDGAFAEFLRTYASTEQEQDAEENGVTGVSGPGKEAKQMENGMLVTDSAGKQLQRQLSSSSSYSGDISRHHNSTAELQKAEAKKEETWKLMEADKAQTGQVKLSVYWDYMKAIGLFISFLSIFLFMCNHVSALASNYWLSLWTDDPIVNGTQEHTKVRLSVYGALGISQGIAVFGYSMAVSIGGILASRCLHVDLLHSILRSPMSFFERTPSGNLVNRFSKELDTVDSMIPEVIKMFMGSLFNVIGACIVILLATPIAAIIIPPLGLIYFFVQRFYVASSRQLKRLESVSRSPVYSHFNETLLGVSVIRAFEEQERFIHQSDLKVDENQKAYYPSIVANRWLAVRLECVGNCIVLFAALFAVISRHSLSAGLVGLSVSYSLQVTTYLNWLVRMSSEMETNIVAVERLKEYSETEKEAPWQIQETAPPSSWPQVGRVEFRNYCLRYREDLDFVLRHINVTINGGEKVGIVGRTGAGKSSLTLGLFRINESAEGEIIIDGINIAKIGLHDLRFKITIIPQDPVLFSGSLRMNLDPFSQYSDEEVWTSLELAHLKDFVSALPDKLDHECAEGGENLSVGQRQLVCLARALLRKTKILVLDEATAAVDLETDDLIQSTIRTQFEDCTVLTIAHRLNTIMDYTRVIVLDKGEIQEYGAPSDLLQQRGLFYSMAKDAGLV

Activity: substrate [+]
Compound: O=C(O)c1ccc(C(=O)O)c(-c2c3cc(Cl)c(=O)cc-3oc3cc(O)c(Cl)cc23)c1.O=C(O)c1cccc(C(=O)O)c1-c1c2cc(Cl)c(=O)cc-2oc2cc(O)c(Cl)cc12
